# US10072003B2, “Tetrahydronaphthyridine derivatives as mGluR2-negative allosteric modulators, compositions, and their use” (Merck Sharp & Dohme Corp., priority 2014, dated 2018)
# Target: recombinant human mGluR2 (Homo sapiens (Human), UniProt Q14416)
# Assay: FLIPR Ca2+ mobilization antagonist assay in CHO dhfr- cells expressing human mGluR2 and Gα16
# Assay type: cell-based
# Conditions: antagonist response after addition of 2,500 nM glutamate, Fluo-4 AM, FLIPR384
# Protocol: Antagonist constants are determined as follows. The compounds of the invention were tested in a fluorescence laser imaging plate reader based assay. This assay is a common functional assay to monitor Ca2+ mobilization in whole cells expressing recombinant receptor coupled with a promiscuous G-protein. CHO dhfr-cells stably expressing recombinant human mGluR2 and Gα16 loaded with Fluo-4 AM (Invitrogen, Carlsbad Calif.) were treated with various concentrations of antagonists of compounds and the Ca2+ response was monitored on a FLIPR384 (Molecular Devices, Sunnydale Calif.) for agonist activity. Then 2,500 nM glutamate was added and the antagonist response was monitored. The maximum calcium response at each concentration of compound for agonist or antagonist were plotted as dose responses and the curves were fitted with a four parameter logistic equation giving IC50 and Hill coefficient using the iterative non linear curve fitting software ADA (Merck & Co). Data in the following table represent activities in the antagonist assay.
# Chain of recombinant human mGluR2 (Q14416 19-872): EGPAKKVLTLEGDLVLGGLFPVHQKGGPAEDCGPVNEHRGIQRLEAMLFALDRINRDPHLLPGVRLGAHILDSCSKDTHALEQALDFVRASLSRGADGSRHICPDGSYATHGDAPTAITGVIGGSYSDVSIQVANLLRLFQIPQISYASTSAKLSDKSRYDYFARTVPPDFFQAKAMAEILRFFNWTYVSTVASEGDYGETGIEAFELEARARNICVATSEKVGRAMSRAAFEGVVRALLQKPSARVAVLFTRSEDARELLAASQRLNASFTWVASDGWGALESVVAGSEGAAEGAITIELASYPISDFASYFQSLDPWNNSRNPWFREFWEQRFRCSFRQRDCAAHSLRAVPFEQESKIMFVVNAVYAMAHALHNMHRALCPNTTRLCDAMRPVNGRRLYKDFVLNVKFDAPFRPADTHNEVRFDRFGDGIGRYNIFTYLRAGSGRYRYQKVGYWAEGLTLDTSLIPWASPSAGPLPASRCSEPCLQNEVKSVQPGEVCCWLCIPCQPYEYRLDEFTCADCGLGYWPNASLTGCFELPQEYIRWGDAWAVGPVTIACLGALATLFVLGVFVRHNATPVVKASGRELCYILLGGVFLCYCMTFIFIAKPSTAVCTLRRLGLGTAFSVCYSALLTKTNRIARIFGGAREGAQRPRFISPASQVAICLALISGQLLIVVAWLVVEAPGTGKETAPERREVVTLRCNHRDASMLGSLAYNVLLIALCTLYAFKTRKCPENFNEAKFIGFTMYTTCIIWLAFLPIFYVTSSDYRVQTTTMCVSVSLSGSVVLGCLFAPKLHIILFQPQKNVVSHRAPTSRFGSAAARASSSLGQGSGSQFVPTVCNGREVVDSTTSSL
row,IC50,Compound
1,8.7 nM,"Cn1nccc1CN1CCc2c(-c3ccc(Cl)cc3F)cc(C(N)=O)nc2C1 [Example 1-8, 4-(4-chloro-2-fluorophenyl)-7-[(1-methyl-1H-pyrazol-5-yl)methyl]-5,6,7,8-tetrahydro-1,7-naphthyridine-2-carboxamide]"
2,8.2 nM,"CC(C)n1nccc1CN1CCc2c(-c3ccc(F)cc3F)cc(C(N)=O)nc2C1 [Example 1-9, 4-(2,4-difluorophenyl)-7-{[1-(1-methylethyl)-1H-pyrazol-5-yl]methyl}-5,6,7,8-tetrahydro-1,7-naphthyridine-2-carboxamide]"
3,21.8 nM,"Cc1cnn(C)c1CN1CCc2c(-c3ccc(F)cc3F)cc(C(N)=O)nc2C1 [Example 1-10, 4-(2,4-difluorophenyl)-7-[(1,4-dimethyl-1H-pyrazol-5-yl)methyl]-5,6,7,8-tetrahydro-1,7-naphthyridine-2-carboxamide]"
4,9.9 nM,"Cc1ccc(-c2cc(C(N)=O)nc3c2CCN(Cc2ccnn2C(C)C)C3)c(F)c1 [Example 1-12, 4-(2-fluoro-4-methylphenyl)-7-{[1-(1-methylethyl)-1H-pyrazol-5-yl]methyl}-5,6,7,8-tetrahydro-1,7-naphthyridine-2-carboxamide]"
5,84.1 nM,"CC(C)(C)n1nccc1CN1CCc2c(-c3ccncc3)cc(C(N)=O)nc2C1 [Example 1-13, 7-[(1-tert-butyl-1H-pyrazol-5-yl)methyl]-4-pyridin-4-yl-5,6,7,8-tetrahydro-1,7-naphthyridine-2-carboxamide]"
6,14.1 nM,"Cn1cncc1CN1CCc2c(-c3ccc(Cl)cc3F)cc(C(N)=O)nc2C1 [Example 1-16, 4-(4-chloro-2-fluorophenyl)-7-[(1-methyl-1H-imidazol-5-yl)methyl]-5,6,7,8-tetrahydro-1,7-naphthyridine-2-carboxamide]"
7,7.4 nM,"CC(C)(C)n1nncc1CN1CCc2c(-c3c(F)cc(Cl)cc3F)cc(C(N)=O)nc2C1 [Example 1-17, 7-[(1-tert-butyl-1H-1,2,3-triazol-5-yl)methyl]-4-(4-chloro-2,6-difluorophenyl)-5,6,7,8-tetrahydro-1,7-naphthyridine-2-carboxamide]"
8,52.7 nM,"NC(=O)c1cccc(CN2CCc3c(-c4ccc(F)cc4)cc(C(N)=O)nc3C2)c1 [Example 2-1, 7-(3-carbamoylbenzyl)-4-(4-fluorophenyl)-5,6,7,8-tetrahydro-1,7-naphthyridine-2-carboxamide]"
9,28.2 nM,"NC(=O)c1cc(-c2ccc(F)cc2)c2c(n1)CN(Cc1ccccc1C(N)=O)CC2 [Example 2-2, 7-(2-carbamoylbenzyl)-4-(4-fluorophenyl)-5,6,7,8-tetrahydro-1,7-naphthyridine-2-carboxamide]"
10,117 nM,"NC(=O)c1ccc(CN2CCc3c(-c4ccc(F)cc4)cc(C(N)=O)nc3C2)cc1 [Example 2-3, 7-(4-carbamoylbenzyl)-4-(4-fluorophenyl)-5,6,7,8-tetrahydro-1,7-naphthyridine-2-carboxamide]"
11,20.4 nM,"NC(=O)c1cc(-c2ccc(F)c(F)c2)c2c(n1)CN(Cc1ccnc(C(F)(F)F)c1)CC2 [Example 2-4, 4-(3,4-difluorophenyl)-7-{[2-(trifluoromethyl)pyridin-4-yl]methyl}-5,6,7,8-tetrahydro-1,7-naphthyridine-2-carboxamide]"
12,30.3 nM,"NC(=O)c1cc(-c2cnn(C(F)F)c2)c2c(n1)CN(Cc1ccnc(C(F)(F)F)c1)CC2 [Example 2-5, 4-[1-(difluoromethyl)-1H-pyrazol-4-yl]-7-{[2-(trifluoromethyl)pyridin-4-yl]methyl}-5,6,7,8-tetrahydro-1,7-naphthyridine-2-carboxamide]"
13,23 nM,"CS(=O)(=O)c1cccc(CN2CCc3c(-c4ccc(F)cc4)cc(C(N)=O)nc3C2)c1 [Example 2-6, 4-(4-fluorophenyl)-7-[3-(methylsulfonyl)benzyl]-5,6,7,8-tetrahydro-1,7-naphthyridine-2-carboxamide]"
14,7.6 nM,"Cc1nonc1CN1CCc2c(-c3ccc(F)cc3F)cc(C(N)=O)nc2C1 [Example 2-7, 4-(2,4-difluorophenyl)-7-[(4-methyl-1,2,5-oxadiazol-3-yl)methyl]-5,6,7,8-tetrahydro-1,7-naphthyridine-2-carboxamide]"
15,188 nM,"NC(=O)c1cc(-c2cccc(C(F)(F)F)c2)c2c(n1)CN(Cc1ccnc(C(F)(F)F)c1)CC2 [Example 2-8, 4-[3-(trifluoromethyl)phenyl]-7-{[2-(trifluoromethyl)pyridin-4-yl]methyl}-5,6,7,8-tetrahydro-1,7-naphthyridine-2-carboxamide]"
16,10.8 nM,"NC(=O)c1cc(-c2cnn(C(F)F)c2)c2c(n1)CN(Cc1ccnc(C3CC3)c1)CC2 [Example 2-9, 7-[(2-cyclopropylpyridin-4-yl)methyl]-4-[1-(difluoromethyl)-1H-pyrazol-4-yl]-5,6,7,8-tetrahydro-1,7-naphthyridine-2-carboxamide]"

row,IC50,Compound
1,40.9 nM,"COc1cc(F)ccc1-c1cc(C(N)=O)nc2c1CCN(Cc1ccnc(C3CC3)c1)C2 [Example 2-10, 7-[(2-cyclopropylpyridin-4-yl)methyl]-4-(4-fluoro-2-methoxyphenyl)-5,6,7,8-tetrahydro-1,7-naphthyridine-2-carboxamide]"
2,10.4 nM,"NC(=O)c1cc(-c2ccc(F)cc2Cl)c2c(n1)CN(Cc1ccnc(OC(F)F)c1)CC2 [Example 2-11, 4-(2-chloro-4-fluorophenyl)-7-{[2-(difluoromethoxy)pyridin-4-yl]methyl}-5,6,7,8-tetrahydro-1,7-naphthyridine-2-carboxamide]"
3,8.5 nM,"NC(=O)c1cc(-c2cnn(C(F)F)c2)c2c(n1)CN(Cc1ccnc(OC(F)F)c1)CC2 [Example 2-12, 7-{[2-(difluoromethoxy)pyridin-4-yl]methyl}-4-[1-(difluoromethyl)-1H-pyrazol-4-yl]-5,6,7,8-tetrahydro-1,7-naphthyridine-2-carboxamide]"
4,47.8 nM,"CS(=O)(=O)c1cccc(CN2CCc3c(-c4ccccc4F)cc(C(N)=O)nc3C2)c1 [Example 2-13, 4-(2-fluorophenyl)-7-[3-(methylsulfonyl)benzyl]-5,6,7,8-tetrahydro-1,7-naphthyridine-2-carboxamide]"
5,153 nM,"Cc1cc(-c2cc(C(N)=O)nc3c2CCN(Cc2ccnc(C(F)(F)F)c2)C3)ccn1 [Example 2-14, 4-(2-methylpyridin-4-yl)-7-{[2-(trifluoromethyl)pyridin-4-yl]methyl}-5,6,7,8-tetrahydro-1,7-naphthyridine-2-carboxamide]"
6,45.2 nM,"NC(=O)c1cc(-c2cnc(C(F)F)s2)c2c(n1)CN(Cc1ccnc(OC(F)F)c1)CC2 [Example 2-15, 7-{[2-(difluoromethoxy)pyridin-4-yl]methyl}-4-[2-(difluoromethyl)-1,3-thiazol-5-yl]-5,6,7,8-tetrahydro-1,7-naphthyridine-2-carboxamide]"
7,26.7 nM,"Cc1cc(-c2cc(C(N)=O)nc3c2CCN(Cc2ccnc(OC(F)F)c2)C3)sn1 [Example 2-16, 7-{[2-(difluoromethoxy)pyridin-4-yl]methyl}-4-(3-methylisothiazol-5-yl)-5,6,7,8-tetrahydro-1,7-naphthyridine-2-carboxamide]"
8,101 nM,"NC(=O)c1cc(-c2ccc(F)cc2F)c2c(n1)CN(CC(=O)N1CCOCC1)CC2 [Example 2-17, 4-(2,4-difluorophenyl)-7-(2-morpholin-4-yl-2-oxoethyl)-5,6,7,8-tetrahydro-1,7-naphthyridine-2-carboxamide]"
9,49.5 nM,"Cn1nnnc1CN1CCc2c(-c3ccc(F)cc3F)cc(C(N)=O)nc2C1 [Example 2-18, 4-(2,4-difluorophenyl)-7-[(1-methyl-1H-tetrazol-5-yl)methyl]-5,6,7,8-tetrahydro-1,7-naphthyridine-2-carboxamide]"
10,61.6 nM,"NC(=O)c1cc(-n2ccc(C(F)(F)F)n2)c2c(n1)CN(Cc1ccnc(C(F)(F)F)c1)CC2 [Example 2-19, 4-[3-(trifluoromethyl)-1H-pyrazol-1-yl]-7-{[2-(trifluoromethyl)pyridin-4-yl]methyl}-5,6,7,8-tetrahydro-1,7-naphthyridine-2-carboxamide]"
11,11 nM,"NC(=O)c1cc(-c2c(F)cc(Cl)cc2F)c2c(n1)CN(Cc1ccnn1C(F)F)CC2 [Example 2-20, 4-(4-chloro-2,6-difluorophenyl)-7-{[1-(difluoromethyl)-1H-pyrazol-5-yl]methyl}-5,6,7,8-tetrahydro-1,7-naphthyridine-2-carboxamide]"
12,33.7 nM,"Cn1nncc1CN1CCc2c(-c3c(F)cc(F)cc3F)cc(C(N)=O)nc2C1 [Example 2-21, 7-[(1-methyl-1H-1,2,3-triazol-5-yl)methyl]-4-(2,4,6-trifluorophenyl)-5,6,7,8-tetrahydro-1,7-naphthyridine-2-carboxamide]"
13,19.4 nM,"NC(=O)c1cc(-c2ccc(Cl)cn2)c2c(n1)CN(Cc1ccnn1C(F)F)CC2 [Example 2-22, 4-(5-chloropyridin-2-yl)-7-{[1-(difluoromethyl)-1H-pyrazol-5-yl]methyl}-5,6,7,8-tetrahydro-1,7-naphthyridine-2-carboxamide]"
14,5.7 nM,"NC(=O)c1cc(-c2ccc(F)cc2F)c2c(n1)CN(Cc1cc(C(F)(F)F)ncn1)CC2 [Example 2-23, 4-(2,4-difluorophenyl)-7-{[6-(trifluoromethyl)pyrimidin-4-yl]methyl}-5,6,7,8-tetrahydro-1,7-naphthyridine-2-carboxamide]"
15,18.2 nM,"NC(=O)c1cc(-c2cc(C3CC3)ns2)c2c(n1)CN(Cc1ccnc(C3CC3)c1)CC2 [Example 2-24, 4-(3-cyclopropylisothiazol-5-yl)-7-[(2-cyclopropylpyridin-4-yl)methyl]-5,6,7,8-tetrahydro-1,7-naphthyridine-2-carboxamide]"
